Measured values from patent publication US20210179578A1, “OX1 ANTAGONISTS” (Heptares Therapeutics Limited, priority 2017, published 2021).

Columns and labels:
human OX2 receptor = biological target: T1, human OX2 receptor (Homo sapiens, UniProt O43614); test: [3H]-radioligand binding assay, OX2; parameters: made in house; host or cells: SF21 insect cells (baculovirus; P0 virus made in SF9); conditions: for Ki: [3H]-radioligand binding, human OX2 membranes, read-out: pKi average OX2 (converted)
T1 sequence (O43614 1-444): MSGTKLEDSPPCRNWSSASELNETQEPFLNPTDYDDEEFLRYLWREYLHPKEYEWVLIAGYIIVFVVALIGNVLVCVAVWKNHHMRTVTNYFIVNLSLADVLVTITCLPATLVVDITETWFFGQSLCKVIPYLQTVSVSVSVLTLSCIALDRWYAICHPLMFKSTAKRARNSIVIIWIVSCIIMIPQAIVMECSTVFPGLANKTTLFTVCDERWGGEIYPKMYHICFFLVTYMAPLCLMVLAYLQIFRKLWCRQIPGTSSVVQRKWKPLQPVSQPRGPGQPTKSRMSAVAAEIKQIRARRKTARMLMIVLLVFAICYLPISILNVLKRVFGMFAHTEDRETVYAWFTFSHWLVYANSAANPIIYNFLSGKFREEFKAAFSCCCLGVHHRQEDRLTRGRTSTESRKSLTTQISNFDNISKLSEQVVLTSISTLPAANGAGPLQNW
Description: (§1) Cloning, Baculovirus generation, large-scale infection of SF21 cells and membrane preparation. Human OX1 or OX2 receptor were cloned into Invitrogen's (ThermoFisher Scientific, UK) Bac-to-Bac Baculovirus Expression System. P0 baculovirus was generated by transfecting SF9 cells with bacmid DNA using Cellfectin® II transfection reagent (ThermoFisher Scientific, UK, Catalog number 10362-100). Following P0 generation P1 virus was then generated ready for large scale infection and membrane preparation. SF21 cells were grown in expression medium ESF921 (Expression Systems, USA, catalog number 96-001-01) supplemented with 10% heat-inactivated FBS and 1% Pen/Strep and were infected at a cell density of 2.5×10^6 cells/mL and a multiplicity of infection of 1.0 for both human OX1R and OX2R. Incubation was carried out at over 48 h in a shaking incubator set at 27° C. The cell culture was then centrifuged at 2,500 rcf for 10 min at 4° C. The pellets were resuspended in cold PBS supplemented with Roche's Complete EDTA-free protease inhibitor cocktail tablets (Roche Applied Sciences, catalog number 05056489001), 1 mM PMSF and 1 mM EDTA. The resuspended cell paste was then centrifuged at 3,273 rcf for 12 min at 4° C. The supernatant was discarded and the pellet frozen at −80° C. The cell pellet from a 4 L culture was resuspended in buffer containing 50 mM HEPES pH 7.5, 150 mM NaCl, 8 Roche EDTA-Free protease inhibitor cocktail tablets and 1 mM PMSF. The suspension was left stirring at rt for 1 h and then homogenised for 90 s at 9,500 rpm using a VDI 25 (VWR, USA) homogeniser. The cells were then lysed using a Microfluidiser processor M-110L Pneumatic (Microfluidics, USA) at 60 PSI and membranes collected by ultracentrifugation at 204.7 k×g for 1 h. The supernatant was discarded and the pellet was resuspended and homogenised in 90 s at 9,500 rpm in 50 mL (25 mL for each 2 L culture) of buffer containing 50 mM Hepes pH 7.5, 150 mM NaCl, 3 Roche EDTA-free protease inhibitor cocktail tablets and 1 mM PMSF. The resulting membranes were then stored at −80° C.
(§2) [^3H]-radioligand binding assay. After thawing, membrane homogenates were resuspended in the binding buffer (8.5 mM HEPES, pH 7.4, 1.3 mM CaCl2, 1.2 mM MgSO4, 118 mM NaCl, 4.7 mM KCl, 4 mM NaHCO3, 1.2 mM KH2PO4, 11 mM glucose) to a final assay concentration of 6.4 μg (OX1) or 1.4 μg (OX2) protein per well. Saturation isotherms were determined by the addition of various concentrations (0-30 nM) of [^3H]-4-(2,6-difluoro-4-methoxybenzyl)-2-(5,6-dimethoxypyridin-3-yl)-2H-1,2,4-benzothiadiazin-3(4H)-one 1,1-dioxide (Christopher et al, MedChemComm., 2015, 6, 947-955) in a total reaction volume of 250 μL for 90 min at rt. At the end of the incubation, membranes were filtered onto a 96-well GF/B filter pre-incubated with 0.5% polyethylenimine, with a Tomtec cell harvester and washed 5 times with 0.5 mL distilled water. Non-specific binding (NSB) was measured in the presence of 3.33 μM [4-(5-chloro-1,3-benzoxazol-2-yl)-7-methyl-1,4-diazepan-1-yl][5-methyl-2-(2H-1,2,3-triazol-2-yl)phenyl]methanone (Wertz et al, Angew. Chem. Int. Ed., 2011, 50, 11511-11515). Radioactivity on the filter was counted (1 min) on a Microbeta radiometric plate counter (Perkin Elmer) after addition of 50 μL of scintillation fluid (LabLogic: Part #SG-BXX-14). […] IC50 values were derived from the inhibition curve and the equilibrium dissociation constant (Ki) values were calculated using the Cheng-Prusoff equation.

human OX1 receptor = biological target: T2, human OX1 receptor (Homo sapiens, UniProt O43613); test: [3H]-radioligand binding assay, OX1; parameters: made in house; host or cells: SF21 insect cells (baculovirus; P0 virus made in SF9); conditions: for Ki: [3H]-radioligand binding, human OX1 membranes, read-out: pKi average OX1 (converted)
T2 sequence (O43613 1-425): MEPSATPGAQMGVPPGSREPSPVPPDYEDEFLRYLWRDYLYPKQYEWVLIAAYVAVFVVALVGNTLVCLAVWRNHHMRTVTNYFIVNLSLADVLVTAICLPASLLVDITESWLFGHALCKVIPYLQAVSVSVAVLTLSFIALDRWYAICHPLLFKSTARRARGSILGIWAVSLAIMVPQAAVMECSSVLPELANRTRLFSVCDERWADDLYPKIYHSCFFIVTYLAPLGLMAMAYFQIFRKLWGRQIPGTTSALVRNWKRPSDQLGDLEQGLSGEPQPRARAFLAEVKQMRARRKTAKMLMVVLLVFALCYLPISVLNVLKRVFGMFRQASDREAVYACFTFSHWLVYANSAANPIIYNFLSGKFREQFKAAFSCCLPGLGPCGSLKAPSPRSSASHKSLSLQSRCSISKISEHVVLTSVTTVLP
Description: as §1, §2

Structure (SMILES) | Ki (human OX2 receptor) [nM] | Ki (human OX1 receptor) [nM] | Kd (human OX2 receptor; OX2 receptor membranes, saturation isotherms) [nM] | Kd (human OX1 receptor; OX1 receptor membranes, saturation isotherms) [nM]
COc1ncc(C2CCc3c(F)cccc3N(Cc3c(F)cc(Br)cc3F)C2=O)cc1C(C)(F)F (single isomer, unassigned) [Example 11, 1-(4-bromo-2,6-difluorobenzyl)-3-[5-(1,1-difluoroethyl)-6-methoxypyridin-3-yl]-6-fluoro-1,3,4,5-tetrahydro-2H-1-benzazepin-2-one] | > 126 | 1.58 |  | 
COc1cc(F)c(CN2C(=O)N(c3cnc(OC)c(OC)c3)S(=O)(=O)c3ccccc32)c(F)c1 [[^3H]-4-(2,6-difluoro-4-methoxybenzyl)-2-(5,6-dimethoxypyridin-3-yl)-2H-1,2,4-benzothiadiazin-3(4H)-one 1,1-dioxide, reference compound] |  |  | 0.75 | 1.5
COCc1cc(F)c(CN2C(=O)C(c3cnc(C)c(C(C)(F)F)c3)CCc3c(F)cccc32)c(F)c1 (single isomer, unassigned) [Example 40, 3-[5-(1,1-difluoroethyl)-6-methylpyridin-3-yl]-1-[2,6-difluoro-4-(methoxymethyl)benzyl]-6-fluoro-1,3,4,5-tetrahydro-2H-1-benzazepin-2-one] | > 15.8 | 1.58 |  | 
Cc1ncc(C2CCc3c(F)cccc3N(Cc3cc(C#N)ccc3F)C2=O)cc1C(C)(F)F (single isomer, unassigned) [Example 41, 3-({3-[5-(1,1-difluoroethyl)-6-methylpyridin-3-yl]-6-fluoro-2-oxo-2,3,4,5-tetrahydro-1H-1-benzazepin-1-yl}methyl)-4-fluorobenzonitrile] | > 501 | 1.26 |  | 
COc1ncc(C2CCc3c(F)cccc3N(Cc3c(F)cc(Br)cc3F)C2=O)cc1S(C)(=O)=O (single isomer, unassigned) [Example 20, 1-(4-bromo-2,6-difluorobenzyl)-6-fluoro-3-[6-methoxy-5-(methylsulfonyl)pyridin-3-yl]-1,3,4,5-tetrahydro-2H-1-benzazepin-2-one] | > 631 | 200 |  | 
